According to patent publication US12514938B2, “Fibroblast activation protein targeting peptides” (PERSPECTIVE THERAPEUTICS, INC., priority 2023, dated 2026):
*1 amine or outer side, *2 acyl side, *3 side chain or, on linkers, in order; H or OH if unused. Where a SMILES comes first, the peptide text is derived from it. Bridges are numbered along the chain shown (N, C = ends). The star is where a group is joined. X1 = NC(=O)CN1CCN(CC(=O)O)CCN(CC(=O)*)CCN(CC(=O)O)CC1; oXylylene = c1ccc(C[*:2])c(C[*:1])c1; PEG2 = NCCOCCOCCC(=O)O

Columns and labels:
Format in all cases: biochemical
[1] = biological target: human dipeptidyl peptidase 4 (DPPIV) (Homo sapiens, UniProt P27487); assay: Enzyme inhibition assay, binding specificity of VMT-FAP-2-59 (Example 3, substrate GP-AMC); conditions: 50 μM GP-AMC
Sequence of human dipeptidyl peptidase 4 (DPPIV) (P27487 whole entry): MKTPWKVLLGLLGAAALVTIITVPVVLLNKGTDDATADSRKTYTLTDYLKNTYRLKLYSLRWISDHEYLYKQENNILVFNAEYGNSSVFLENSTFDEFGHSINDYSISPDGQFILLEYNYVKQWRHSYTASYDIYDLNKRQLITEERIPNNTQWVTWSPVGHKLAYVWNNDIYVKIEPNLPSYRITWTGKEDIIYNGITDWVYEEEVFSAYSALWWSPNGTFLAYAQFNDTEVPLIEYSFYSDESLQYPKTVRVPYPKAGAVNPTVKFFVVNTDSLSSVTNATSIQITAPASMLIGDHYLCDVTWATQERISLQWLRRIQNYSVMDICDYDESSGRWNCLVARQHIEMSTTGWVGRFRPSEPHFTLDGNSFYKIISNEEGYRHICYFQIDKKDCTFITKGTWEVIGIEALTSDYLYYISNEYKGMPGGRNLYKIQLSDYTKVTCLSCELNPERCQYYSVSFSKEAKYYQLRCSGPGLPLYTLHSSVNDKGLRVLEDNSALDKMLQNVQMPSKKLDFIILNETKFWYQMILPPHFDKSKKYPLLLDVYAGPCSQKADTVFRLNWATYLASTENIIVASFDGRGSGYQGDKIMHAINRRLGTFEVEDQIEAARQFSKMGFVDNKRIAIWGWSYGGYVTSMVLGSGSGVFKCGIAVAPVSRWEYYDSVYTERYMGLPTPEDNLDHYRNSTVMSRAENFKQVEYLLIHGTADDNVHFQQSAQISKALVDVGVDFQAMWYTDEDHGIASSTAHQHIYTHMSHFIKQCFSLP
Experimental: The enzyme inhibition assay was performed to determine inhibitor constant (i.e., Ki) values against human FAP, mouse FAP, human dipeptidyl peptidase 4 (DPPIV) and human prolyl endopeptidase (PREP). Z-GP-AMC was used as substrate for human FAP, mouse FAP and human PREP. GP-AMC was used as substrate for human DPPIV. To perform the assay, VMT-FAP-2-59 at varying concentrations (i.e. 10^−6 to 10^−12) were incubated with 5 ng hFAP, 5 ng mFAP, 2.5 ng DPPIV, or 5 ng PREP in a black 96-well plate for 10 minutes at RT on a shaker plate. The substrate was added to give a final concentration of 50 μM for Z-GP-AMC and GP-AMC. The total reaction volume per well was 100 μL The reaction was allowed to incubate at RT on a shaker plate for 1 hour protected from light, and then fluorescence was read with a BioTek Synergy LX plate reader at an ex/em (360/40 and 460/40). Experiments were performed in at least duplicate. Buffer only, buffer/enzymes, buffer/substrate and enzyme only were included as controls. Data was plotted in GraphPad Prism and non-linear regression used to calculate IC50 values. Binding kinetics (Kd) of VMT-FAP-2-59 against human FAP, human DPPIV and human PREP were also determined by grating-coupled interferometry (GCI). hFAP, hDPPIV and hPREP proteins were fixed on PCH (N=3) chips or PCP (N=2). […] On PCP chips, binding affinity of VMT-FAP-2-29 to hFAP was determined from 39 pM to 20 nM. […]

[2] = biological target: T1, Human Fibroblast Activation Protein (FAP) (Homo sapiens, UniProt Q12884); assay: Enzyme inhibition assay against human FAP (substrate Z-GP-AMC), Example 1; conditions: human FAP 5 ng/well, 50 μM Z-GP-AMC; Ki from IC50 by Cheng-Prusoff
T1 sequence (Q12884 1-760): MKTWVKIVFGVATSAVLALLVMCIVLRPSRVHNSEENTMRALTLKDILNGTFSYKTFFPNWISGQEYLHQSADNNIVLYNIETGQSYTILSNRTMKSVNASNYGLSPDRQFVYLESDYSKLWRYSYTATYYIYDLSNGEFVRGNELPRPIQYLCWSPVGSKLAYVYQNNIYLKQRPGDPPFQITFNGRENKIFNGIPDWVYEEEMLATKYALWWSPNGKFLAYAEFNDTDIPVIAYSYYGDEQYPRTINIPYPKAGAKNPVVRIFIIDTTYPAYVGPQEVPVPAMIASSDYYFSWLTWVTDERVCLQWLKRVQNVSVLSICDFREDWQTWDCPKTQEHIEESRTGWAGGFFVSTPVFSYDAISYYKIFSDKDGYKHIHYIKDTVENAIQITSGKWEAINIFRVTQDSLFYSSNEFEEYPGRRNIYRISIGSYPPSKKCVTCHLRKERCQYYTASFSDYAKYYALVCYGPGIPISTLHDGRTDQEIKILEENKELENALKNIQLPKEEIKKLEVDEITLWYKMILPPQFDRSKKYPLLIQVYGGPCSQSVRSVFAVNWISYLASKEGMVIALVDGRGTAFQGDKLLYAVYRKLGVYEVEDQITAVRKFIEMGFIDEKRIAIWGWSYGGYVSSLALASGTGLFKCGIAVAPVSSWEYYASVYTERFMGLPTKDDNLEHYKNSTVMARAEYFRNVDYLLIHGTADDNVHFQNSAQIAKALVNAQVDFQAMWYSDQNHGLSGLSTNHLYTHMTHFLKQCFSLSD
Procedure, shortened: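 FAP (5 ng/well) preincubated 10 min at RT with peptide (10^−6 to 10^−12), then 50 μM Z-GP-AMC added for 1 h at RT, protected from light. Buffer 50 mM Tris-HCl, 1 M NaCl, 1 mg/mL BSA, pH 7.5; fluorescence at ex/em 360/460. IC50 from non-linear regression, converted to Ki via Cheng-Prusoff using known substrate Km.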

[3] = biological target: T2, human prolyl endopeptidase (PREP) (Homo sapiens, UniProt P48147); assay: Enzyme inhibition assay, binding specificity of VMT-FAP-2-59 (Example 3); conditions: 50 μM Z-GP-AMC
T2 sequence (P48147 1-710): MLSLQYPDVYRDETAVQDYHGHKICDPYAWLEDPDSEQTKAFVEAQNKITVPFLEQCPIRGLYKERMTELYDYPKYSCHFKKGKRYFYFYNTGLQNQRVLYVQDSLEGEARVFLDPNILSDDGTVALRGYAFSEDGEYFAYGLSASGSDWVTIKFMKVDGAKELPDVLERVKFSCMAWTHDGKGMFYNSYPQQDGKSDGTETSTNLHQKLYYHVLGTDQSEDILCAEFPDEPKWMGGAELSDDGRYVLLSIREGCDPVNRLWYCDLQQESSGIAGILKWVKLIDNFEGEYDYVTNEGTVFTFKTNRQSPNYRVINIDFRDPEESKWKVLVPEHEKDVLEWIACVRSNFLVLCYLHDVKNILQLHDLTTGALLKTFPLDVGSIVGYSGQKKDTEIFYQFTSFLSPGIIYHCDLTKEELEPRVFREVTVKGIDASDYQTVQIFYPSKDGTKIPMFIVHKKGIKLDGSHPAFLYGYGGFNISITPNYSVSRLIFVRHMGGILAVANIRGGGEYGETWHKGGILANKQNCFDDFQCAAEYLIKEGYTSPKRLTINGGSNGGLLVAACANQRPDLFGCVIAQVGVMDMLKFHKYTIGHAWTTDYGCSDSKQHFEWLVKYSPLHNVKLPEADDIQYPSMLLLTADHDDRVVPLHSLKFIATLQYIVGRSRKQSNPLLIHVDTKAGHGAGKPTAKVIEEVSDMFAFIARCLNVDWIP
Experimental: (§1) The enzyme inhibition assay was performed to determine inhibitor constant (i.e., Ki) values against human FAP, mouse FAP, human dipeptidyl peptidase 4 (DPPIV) and human prolyl endopeptidase (PREP). Z-GP-AMC was used as substrate for human FAP, mouse FAP and human PREP. GP-AMC was used as substrate for human DPPIV. To perform the assay, VMT-FAP-2-59 at varying concentrations (i.e. 10^−6 to 10^−12) were incubated with 5 ng hFAP, 5 ng mFAP, 2.5 ng DPPIV, or 5 ng PREP in a black 96-well plate for 10 minutes at RT on a shaker plate. The substrate was added to give a final concentration of 50 μM for Z-GP-AMC and GP-AMC. The total reaction volume per well was 100 μL The reaction was allowed to incubate at RT on a shaker plate for 1 hour protected from light, and then fluorescence was read with a BioTek Synergy LX plate reader at an ex/em (360/40 and 460/40). Experiments were performed in at least duplicate. Buffer only, buffer/enzymes, buffer/substrate and enzyme only were included as controls. Data was plotted in GraphPad Prism and non-linear regression used to calculate IC50 values. Binding kinetics (Kd) of VMT-FAP-2-59 against human FAP, human DPPIV and human PREP were also determined by grating-coupled interferometry (GCI). hFAP, hDPPIV and hPREP proteins were fixed on PCH (N=3) chips or PCP (N=2). […] On PCP chips, binding affinity of VMT-FAP-2-29 to hFAP was determined from 39 pM to 20 nM. Binding affinity to hDPPIV and hPREP was determined at concentration from 39 pM to 50 nM.

human FAP = biological target: T3, human FAP (Homo sapiens, UniProt Q12884); assay: as above; conditions: 50 μM Z-GP-AMC
T3 sequence (Q12884 1-760): T1 sequence (Q12884 1-760)
Experimental: as §1

`C[C@@H](O)[C@@H]1NC(=O)[C@@H](NC(=O)CCOCCOCCNC(=O)CN2CCN(CC(=O)O)CCN(CC(N)=O)CCN(CC(=O)O)CC2)CSCc2ccccc2CSC[C@@H](C(N)=O)NC(=O)[C@H](Cc2c[nH]c3ccccc23)NC(=O)[C@H](Cc2c[nH]c3ccccc23)NC(=O)[C@H](CCC(N)=O)NC(=O)[C@H](CCC(=O)O)NC(=O)[C@H](Cc2c[nH]c3ccccc23)NC(=O)[C@@H]2CCCN2C1=O` [VMT-FAP-2-59, PSC-PEG2-[C(oXdB)TPWEQWWC]-NH2] ({X1-PEG2}-CTPWEQWWC-NH2; linker 1-9 via oXylylene) was tested, and the Ki [1] was “No binding”, the Ki [2] was 0.36 nM and the Ki [3] was 152 nM. The Ki (human FAP) was 0.4 nM.
